Target: T1, H3 receptors (Cavia porcellus, UniProt Q9JI35)
T1 construct: The source of the H3 receptors in this experiment was guinea pig brain; from tissue; host or cells: guinea pig brain membranes
Experiment: H3-Receptor Binding Assay (guinea pig brain membranes)
Conditions: 3 nM [3H]R-α-methyl histamine or 3 nM [3H]Nα-methyl histamine, 30° C., 30 min
Procedure: The source of the H3 receptors in this experiment was guinea pig brain. The animals weighed 400–600 g. The brain tissue was homogenized with a solution of 50 mM Tris, pH 7.5. The final concentration of tissue in the homogenization buffer was 10% w/v. […] The resulting supernatants were then centrifuged at 50,000×g for 20 min. in order to sediment the membranes, which were next washed three times in homogenization buffer (50,000×g for 20 min. each). The membranes were frozen and stored at −70° C. until needed.
All compounds to be tested were dissolved in DMSO and then diluted into the binding buffer (50 mM Tris, pH 7.5) such that the final concentration was 2 μg/ml with 0.1% DMSO. Membranes were then added (400 μg of protein) to the reaction tubes. The reaction was started by the addition of 3 nM [^3H]R-α-methyl histamine (8.8 Ci/mmol) or 3 nM [^3H]N^α-methyl histamine (80 Ci/mmol) and continued under incubation at 30° C. for 30 min. Bound ligand was separated from unbound ligand by filtration, and the amount of radioactive ligand bound to the membranes was quantitated by liquid scintillation spectrometry.

T1 sequence (Q9JI35 whole entry): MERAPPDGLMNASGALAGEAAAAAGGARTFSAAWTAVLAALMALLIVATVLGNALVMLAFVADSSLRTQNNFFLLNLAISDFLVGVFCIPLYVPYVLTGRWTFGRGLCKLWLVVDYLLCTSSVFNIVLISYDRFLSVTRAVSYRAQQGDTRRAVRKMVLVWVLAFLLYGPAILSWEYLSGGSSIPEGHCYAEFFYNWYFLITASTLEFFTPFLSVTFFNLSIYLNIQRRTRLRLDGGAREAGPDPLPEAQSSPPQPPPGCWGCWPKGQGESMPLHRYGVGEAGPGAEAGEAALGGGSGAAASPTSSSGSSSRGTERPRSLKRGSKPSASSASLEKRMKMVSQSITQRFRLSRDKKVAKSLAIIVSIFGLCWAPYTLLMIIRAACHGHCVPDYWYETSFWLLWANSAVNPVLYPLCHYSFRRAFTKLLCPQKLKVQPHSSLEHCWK

A Ki of 0.2 nM was found for `O=C(C1CCN(Cc2ccncc2)CC1)N1CCC(n2c(=O)n(CCn3cccc3)c3ccccc32)CC1` [Example 1AL] in this work.
